Experimental data: patent US20110184147A1, “ENZYME SUBSTRATE FOR LABELING OF PROTEIN” (priority 2008, published 2011)

Target: T1, GTG (UniProt P08587)
T1 construct: purchased
T1 sequence (P08587 1-690): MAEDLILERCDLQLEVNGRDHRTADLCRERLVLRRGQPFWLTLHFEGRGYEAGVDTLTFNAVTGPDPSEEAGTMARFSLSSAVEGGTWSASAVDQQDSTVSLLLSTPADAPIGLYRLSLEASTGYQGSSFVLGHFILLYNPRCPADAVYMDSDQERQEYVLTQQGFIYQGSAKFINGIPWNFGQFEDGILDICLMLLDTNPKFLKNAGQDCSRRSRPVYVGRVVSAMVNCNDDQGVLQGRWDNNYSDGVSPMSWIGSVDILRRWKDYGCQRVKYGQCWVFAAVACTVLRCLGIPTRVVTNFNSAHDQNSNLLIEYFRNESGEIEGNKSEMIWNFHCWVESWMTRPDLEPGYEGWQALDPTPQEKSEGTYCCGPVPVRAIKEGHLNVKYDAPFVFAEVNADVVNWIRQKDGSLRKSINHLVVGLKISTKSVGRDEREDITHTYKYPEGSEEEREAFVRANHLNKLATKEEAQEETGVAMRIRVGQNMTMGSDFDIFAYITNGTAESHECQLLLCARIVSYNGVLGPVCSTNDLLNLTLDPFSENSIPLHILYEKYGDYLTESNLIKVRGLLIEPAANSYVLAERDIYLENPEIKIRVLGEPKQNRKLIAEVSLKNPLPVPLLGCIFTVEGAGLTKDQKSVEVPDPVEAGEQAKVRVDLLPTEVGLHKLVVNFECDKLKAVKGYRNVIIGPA
Test: Reactivity of GTG for fluorescent substrate (crosslinking with β-casein)
Assay type: biochemical, guinea pig
Details: substrate 1 mM, β-casein 0.5 mg/ml, GTG 0.2 U/ml, 50 mM HEPES pH 7.4, overnight 27° C.
Protocol: In the experiment, β-casein was used as a protein having a TGase-recognizable Lys and a reaction for crosslinking with a fluorescent substrate was performed to evaluate its reactivity for GTG.
To perform a binding reaction, FITC-β-Ala-QG, β-casein and GTG were added to 50 mM HEPES (5 mM NaCl, 10 mM CaCl2, pH 7.4) to give respective final concentrations of 1 mM, 0.5 mg/ml and 0.2 U/ml and the resulting mixture was left to stand overnight at 27° C. Two comparative samples were prepared; one was a GTG-free sample and the other was prepared by performing an MTG-catalyzed reaction. For the MTG-catalyzed binding reaction, FITC-β-Ala-QG, β-casein and MTG were added to a 10 mM phosphate buffer (pH 7) to give respective final concentrations of 1 mM, 0.5 mg/ml and 1 U/ml and the resulting mixture was left to stand overnight at 27° C. Tracing on the sample after the reaction was performed by the same procedure as in Experiment 2-2.

NC(=O)CCC(NC(=O)CCNC(=S)Nc1ccc(-c2c3ccc(=O)cc-3oc3cc(O)ccc23)c(C(=O)O)c1)C(=O)NCC(=O)O (stereo not drawn) [FITC-β-Ala-QG]
Reactivity of fluorescent substrate for GTG: also recognized by MTG
